Results published in US20260199427A1 (priority 2021, published 2026).
Where “and” joins values, the source holds several entries; their conditions need not be identical. Equal values may be shown once.

Experiments:
[1] = tested on: B. anthracis Ames NR-3838 spores; details: rabbit, in vivo
B. anthracis = assay: microbe, parasite or virus in culture; type: cell-based; details: Bacillus anthracis
[2] = tested on: B. anthracis Ames NR-3838 spores; parameters: species or system New Zealand White (NZW) rabbits; details: rabbit, in vivo
[3] = tested on: B. anthracis Ames spores (NR3838); parameters: species or system New Zealand White (NZW) rabbits; details: rabbit, in vivo
[4] = tested on: B. anthracis Ames spores (NR3838); parameters: species or system New Zealand White (NZW) rabbits; details: rabbit, in vivo; remark: listed apart in the source
[5] = tested on: B. anthracis Ames NR-3838 spores; parameters: species or system New Zealand White (NZW) rabbits; details: rabbit, in vivo; remark: listed apart in the source
[6] = tested on: B. anthracis Ames spores (NR3838); parameters: species or system New Zealand White (NZW) rabbits; details: rabbit, in vivo; remark: listed apart in the source
[7] = tested on: B. anthracis Ames NR-3838 spores; parameters: species or system New Zealand White (NZW) rabbits; details: rabbit, in vivo; remark: listed apart in the source
[8] = tested on: B. anthracis Ames NR-3838 spores; parameters: species or system New Zealand White (NZW) rabbits; details: rabbit, in vivo; remark: listed apart in the source
[9] = tested on: B. anthracis Ames spores (NR3838); parameters: species or system New Zealand White (NZW) rabbits; details: rabbit, in vivo; remark: listed apart in the source

Compound	maximum percent weight loss [1]	peak of febrile response (core body temperature) [1]	MIC (B. anthracis)	animals positive for bacteremia [2]	average level of bacteremia, comparing only the two antibiotic-treated groups [2]	bacteremia [3]	anthrax-related lesions (histopathology) [4]	anthrax induced lesions (histopathology) [5]	overall survival rate [6]	survival [6]	Average Bacterial Load (cfu/g), lung [7]	average bacterial load in the lung tissue, comparing only the two antibiotic-treated groups [7]	survival [8]	B. anthracis bacterial load in lymph node tissue [9]	B. anthracis bacterial load in spleen tissue [9]
CCCCCCCCCCNCCNC1(C)CC(OC2C(Oc3c4cc5cc3Oc3ccc(cc3Cl)[C@@H](O)[C@@H](NC(=O)[C@@H](CC(C)C)NC)C(=O)N[C@@H](CC(N)=O)C(=O)N[C@H]5C(=O)N[C@H]3C(=O)N[C@H](C(=O)N[C@H](C(=O)O)c5cc(O)c(CNCP(=O)(O)O)c(O)c5-c5cc3ccc5O)[C@H](O)c3ccc(c(Cl)c3)O4)OC(CO)C(O)C2O)OC(C)C1O (some centres unmarked) [Vibativ, N^3″-[2-(decylamino)ethyl]-29-[[(phosphonomethyl)amino]methyl]vancomycin]	significantly (p<0.05) higher	~41 °C	< 0.0625 µg/mL	2 out of 12	significantly (p<0.05) lower	never developed bacteremia at a detectable level	generally mitigated	mitigation of anthrax induced lesions	67%	100% and 60%	1.93E+03 cfu/g	significantly (p<0.05) lower	100%	–	–
C[C@H]1COc2c(N3CCN(C)CC3)c(F)cc3c(=O)c(C(=O)O)cn1c23 [Levofloxacin]	–	~41 °C	–	–	–	–	–	–	50%	100% and 50%	6.93E+03 cfu/g	–	100%	0 cfu/g	0 cfu/g
